Laboratory results as given in patent US20030009213A1, “Stent having cover with drug delivery capability” (priority 2000, published 2003).

Assay: Release of Taxol from a coated ePTFE stent cover after implantation
Format: in vivo
Conditions: first week after implantation; ePTFE stent cover with outer layer of Taxol, gelatin and poly(e-caprolactone) mixture (20:20:60)
Excerpt: A polymeric stent cover, made of ePTFE, is provided with another layer of Taxol, gelatin, and poly(e-caprolactone) mixture (20:20:60) on the outside. 20% of the Taxol is released to the artery wall during the first week after implantation.

## CC(=O)O[C@H]1C(=O)[C@@]2(C)[C@H]([C@H](OC(=O)c3ccccc3)[C@]3(O)C[C@H](OC(=O)[C@H](O)[C@@H](NC(=O)c4ccccc4)c4ccccc4)C(C)=C1C3(C)C)[C@]1(OC(C)=O)CO[C@@H]1C[C@@H]2O [Taxol]
  Taxol released to the artery wall: 20%
